Values of other authors as cited in patent publication US20060258652A1, “Beta-blockers having antioxidant and no-donor activity” (priority 2002, published 2006).

Legend:
[1] = prophylactic use
[2] = double-blind study, hypertensive patients

Compound | patients in whom the incidence of migraine attacks is reduced [1] [%] | efficacy in anxiety compared with propranolol [2]
CC(C)NCC(O)COc1cccc2ccccc12 (centres unmarked) [Propranolol] | 60 | –
CC(C)NCC(O)COc1ccc(CC(N)=O)cc1 (centres unmarked) [atenolol] | – | considerably better than propranolol
